Drawing on US7998961B2, “Hydantoin derivatives useful as antibacterial agents” (Schering Corporation, priority 2006, dated 2011), this text covers IC50 and inhibition for 23 molecules.

Molecules are shown by their SMILES. Where two headings read alike, the source gives them in different places.

The assay concerns the target T1, LpxC enzyme (Escherichia coli, UniProt P0A725).
T1 sequence (P0A725 1-305): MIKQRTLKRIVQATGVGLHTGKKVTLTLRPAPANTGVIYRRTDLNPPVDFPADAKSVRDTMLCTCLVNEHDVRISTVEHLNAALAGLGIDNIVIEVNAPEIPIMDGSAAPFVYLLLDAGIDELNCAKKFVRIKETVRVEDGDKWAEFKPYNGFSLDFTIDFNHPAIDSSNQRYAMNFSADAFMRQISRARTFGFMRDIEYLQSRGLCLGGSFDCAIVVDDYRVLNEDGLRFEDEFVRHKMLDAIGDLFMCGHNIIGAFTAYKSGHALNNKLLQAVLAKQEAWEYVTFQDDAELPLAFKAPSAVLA
Briefly: standard LpxC enzyme assay (RapidFire high-throughput mass spectrometry). It counts as biochemical. The following applies: for IC50: LpxC inhibitory activity; for inhibition at 25 µg/mL: compound at 25 ug/mL. The method, then: The standard LpxC assay consists of 0.2 nM LpxC enzyme, 1.0 μM UDP-3-O—(R-3-hydroxymyristoyl)-N-acetylglucosamine, and test compound, in assay buffer and 2% DMSO. Assay buffer is comprised of 25 mM HEPES, pH 7.3, 150 mM NaCl, 2.0 mM DTT, and 0.01% BSA. The enzyme reaction is carried out in a 96-well assay plate, in a final volume of 102 μL. Solutions of test compounds are prepared in 100% DMSO. Reaction additions, in order, are (1) 2.0 μL compound solution, (2) 80 μL of assay buffer, (3) 10 μL of 10 μM UDP-3-O—(R-3-hydroxymyristoyl)-N-acetylglucosamine (in assay buffer) and, (4) 10 μL of LpxC enzyme (20 nM in assay buffer) to initiate the reaction. In positive control reactions, addition (1) has 2.0 μL of 100% DMSO (without compound); these reactions are used as the total signal (TSB) value. Reactions are incubated at room temperature for 60 minutes when 10 μL of 1 N HCl is added to stop the reaction. The plate is shaken by hand for 10 seconds to ensure complete quenching. Assay plates are sealed with foil tape, and stored at −80° C. for 24-48 hr prior to analysis.
The concentrations of substrate and product in the reaction mixtures are determined with BioTrove's proprietary RapidFire™ high-throughput mass spectrometry (HTMS). Assay mixtures are partially purified with reverse phase chromatography, where they are washed with water containing 5 mM ammonium formate and eluted onto the mass spectrometer in 80% acetonitrile, 20% water, and 5 mM ammonium formate. The mass spectrometry peak areas of the substrate and product are measured to determine the concentration of these analytes. The assay signal is the percentage of substrate that is converted to product. Percent inhibition, % I, in test samples is determined from the following equation: […]

The mark [1] stands for this setting: compound at 100 ug/mL, read-out: LpxC enzyme assay rating (% inhibition at indicated concentrations of 100 and 25 ug/mL): 100.
[2] abbreviates: read-out: Numerical LpxC inhibitory activity (% inhibition): 100.
The mark [3] stands for this setting: read-out: LpxC enzyme assay rating (% inhibition at indicated concentrations of 100 and 25 ug/mL): 25.

As to `CCc1ccc(C2CCN(C(=O)CC3(C)NC(=O)NC3=O)CC2)cc1` (centres unmarked) [Compound 76], the IC50 (commonly the concentration that gives 50% inhibition) (read-out: IC50 rating) was more than 5000 nM.

For `O=C1NC(=O)C(CC(=O)N2CCC(c3ccc(Br)cc3)CC2)N1` (centres unmarked) [Compound 45], the inhibition at 100 µg/mL runs as follows: under setting [1], more than 30%; under setting [2], 68%.

Regarding `CC1(CC(=O)N2CCC(O)(c3ccc(C#Cc4ccccc4)cc3)CC2)NC(=O)NC1=O` (centres unmarked) [Compound 38], the IC50 (read-out: IC50 rating) fell in the range of 1000 to 5000 nM.

`C[C@@H](NC(=O)CC1(C)NC(=O)NC1=O)c1ccc(C#Cc2ccccc2)cc1` (some centres unmarked) [Compound 40]: for the setting “read-out: IC50 rating”, the IC50 was more than 5000 nM.

As for `CCC1(CC(=O)N2CCC(c3ccc(C#Cc4ccccc4)cc3)CC2)NC(=O)NC1=O` (centres unmarked) [Compound 43], the IC50 was 250 to 1000 nM (read-out: IC50 rating) and 700 nM (read-out: IC50 values).

For `CCC1(CC(=O)N2CCC(c3ccc(Br)cc3)CC2)NC(=O)NC1=O` (centres unmarked) [Compound 47], the inhibition at 100 µg/mL under setting [1] was more than 30%.

Regarding `CC1(CC(=O)Nc2ccc(C#Cc3ccccc3)cc2)NC(=O)NC1=O` (centres unmarked) [Compound 33], for the setting “read-out: IC50 rating”, the IC50 is more than 5000 nM.

Turning to `O=C1NC(=O)C(CC(=O)N2CCC(c3ccc(C#Cc4ccccc4)cc3)CC2)N1` (centres unmarked) [Compound 41], the inhibition at 100 µg/mL by setting is: under setting [1], more than 30%; under setting [2], 60%.

Consider `CC1(CC(=O)N2CCC(c3ccc(Br)cc3)CC2)NC(=O)NC1=O` (centres unmarked) [Compound 46], for which the inhibition at 100 µg/mL under setting [1] was more than 30%.

Regarding `O=C1NC(=O)C(CC(=O)N2CCN(c3ccc(C#Cc4ccccc4)cc3)CC2)N1` (centres unmarked) [Compound 42], the inhibition at 100 µg/mL under setting [1] was more than 30%.

Turning to `CC1(CC(=O)N2CCC(c3ccc(CCN4CCOCC4)cc3)CC2)NC(=O)NC1=O` (centres unmarked) [Compound 77], the IC50 (read-out: IC50 rating) is more than 5000 nM.

As to `CC1(CC(=O)NCCc2ccc(C#Cc3ccccc3)cc2)NC(=O)NC1=O` (centres unmarked) [Compound 34], the inhibition at 25 µg/mL under setting [3] lay in the range of 10 to 30% and the inhibition at 25 µg/mL (read-out: Numerical LpxC inhibitory activity (% inhibition): 25) is 30%.

In the case of `CC1(CC(=O)NCCc2cccc(C#Cc3ccccc3)c2)NC(=O)NC1=O` (centres unmarked) [Compound 35], the inhibition at 25 µg/mL under setting [3] was less than 10%.

As for `C[C@H](O)[C@@H](NC(=O)c1ccc(C#Cc2ccccc2)cc1)C1NC(=O)NC1=O` (some centres unmarked) [Compound 65], the IC50 (read-out: IC50 rating) is more than 5000 nM.

With `CC1(CC(=O)N2CCC(c3ccc(-c4ccncc4)cc3)CC2)NC(=O)NC1=O` (centres unmarked) [Compound 79], the IC50 (read-out: IC50 rating) is more than 5000 nM.

In the case of `CC1(CC(=O)N2CCC(c3ccc(C#Cc4ccccc4)cc3)CC2)NC(=O)NC1=O` (centres unmarked) [Compound 36], the IC50 is 250 to 1000 nM (read-out: IC50 rating) and 600 nM (read-out: IC50 values).

On to `CC1(CC(=O)N2CCCC(c3ccc(C#Cc4ccccc4)cc3)C2)NC(=O)NC1=O` (centres unmarked) [Compound 37], for which the IC50 (read-out: IC50 rating) is 250 to 1000 nM.

For `CC1(CC(=O)N2CCN(c3ccc(C#Cc4ccccc4)cc3)CC2)NC(=O)NC1=O` (centres unmarked) [Compound 39], the IC50 is 250 to 1000 nM (read-out: IC50 rating) and 500 nM (read-out: IC50 values).

Consider `CC1(CC(=O)N2CCC(c3ccc(-c4ccccc4)cc3)CC2)NC(=O)NC1=O` (centres unmarked) [Compound 78], for which the IC50 (read-out: IC50 rating) is more than 5000 nM.

For the molecule `CC1(CNC(=O)c2ccc(C#Cc3ccccc3)cc2)NC(=O)NC1=O` (centres unmarked) [Compound 66], the IC50 (read-out: IC50 rating) is more than 5000 nM.

In the case of `C[C@@H](O)[C@H](NC(=O)c1ccc(C#Cc2ccccc2)cc1)C1NC(=O)NC1=O` (some centres unmarked) [Compound 64], the IC50 (read-out: IC50 rating) is more than 5000 nM.

Regarding `C#Cc1ccc(C2CCN(C(=O)CC3(C)NC(=O)NC3=O)CC2)cc1` (centres unmarked) [Compound 75], the IC50 (read-out: IC50 rating) was more than 5000 nM.

Consider `CC1(CC(=O)Nc2ccccc2C#Cc2ccccc2)NC(=O)NC1=O` (centres unmarked) [Compound 32], for which the inhibition at 25 µg/mL under setting [3] is less than 10%.
